Experimental data published in patent US20240083861A1, “HSD17B13 INHIBITORS AND USES THEREOF” (FL2022-001, Inc., priority 2020, published 2024).

Target: T1, Recombinant human HSD17B13 enzyme (Homo sapiens, UniProt Q7Z5P4)
T1 sequence (Q7Z5P4 20-300): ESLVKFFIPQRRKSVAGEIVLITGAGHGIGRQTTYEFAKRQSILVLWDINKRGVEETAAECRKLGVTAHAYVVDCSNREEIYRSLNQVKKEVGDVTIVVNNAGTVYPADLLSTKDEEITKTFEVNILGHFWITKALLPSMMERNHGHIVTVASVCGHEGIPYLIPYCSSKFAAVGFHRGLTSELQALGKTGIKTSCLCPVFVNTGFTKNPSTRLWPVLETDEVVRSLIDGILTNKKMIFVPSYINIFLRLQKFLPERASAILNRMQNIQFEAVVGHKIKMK
Test: HSD17b13 NAD(P)H-Glo biochemical assay
Conditions: for IC50: 50 uM estradiol, 1 mM NAD+, NAD(P)H-Glo luminescence, read-out: HSD17β13 IC50; for inhibition at 10 µM: at 10 uM compound, read-out: HSD17β13 % inhibition at 10 uM
In short: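 Luminescent NAD(P)H-Glo read-out, taken after 1 hour at RT, measured cofactor reduction. Substrate and cofactor were estradiol at 50 uM and NAD+ at 1 mM final, reacted with the recombinant human enzyme for 3 hours at 37° C in 20 mM Tris pH7.4, 0.002% Tween-20, 0.02% BSA. Compound was pre-incubated with enzyme for 20 minutes at RT.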

Structure (SMILES) | IC50 | also measured
Cn1nc(-c2cc(C(F)(F)F)c(F)c(O)c2F)c2cnc(N3CCS(=O)(=O)CC3(C)C)cc21 [Compound 9.125, 4-(3-(2,4-Difluoro-3-hydroxy-5-(trifluoromethyl)phenyl)-1-methyl-1H-pyrazolo[4,3-c]pyridin-6-yl)-3,3-dimethylthiomorpholine 1,1-dioxide] | 0.1 to 1 µM | –
Cn1nc(-c2cc(C(F)(F)F)c(F)c(O)c2F)c2cnc(N3CCS(=O)(=O)CC3C3CC3)cc21 (centres unmarked) [Compound 9.126, 3-Cyclopropyl-4-(3-(2,4-difluoro-3-hydroxy-5-(trifluoromethyl)phenyl)-1-methyl-1H-pyrazolo[4,3-c]pyridin-6-yl)thiomorpholine 1,1-dioxide] | < 0.1 µM | –
CN(c1cc(Cl)c2c(-c3cc(C(F)(F)F)c(F)c(O)c3F)nn(C)c2c1)C1CCOCC1 [Compound 9.127, 3-(4-Chloro-1-methyl-6-(methyl(tetrahydro-2H-pyran-4-yl)amino)-1H-indazol-3-yl)-2,6-difluoro-5-(trifluoromethyl)phenol] | 0.1 to 1 µM | –
CN1CCN(c2cc3c(cn2)c(-c2cc(C(F)(F)F)c(F)c(O)c2F)nn3C)C(C2CCOCC2)C1 (centres unmarked) [Compound 9.128, 2,6-Difluoro-3-(1-methyl-6-(4-methyl-2-(tetrahydro-2H-pyran-4-yl)piperazin-1-yl)-1H-pyrazolo[4,3-c]pyridin-3-yl)-5-(trifluoromethyl)phenol] | < 0.1 µM | –
Cn1nc(-c2cc(C(F)(F)F)c(F)c(O)c2F)c2cnc(N(C3CCOCC3)C3CC3)cc21 [Compound 9.129, 3-(6-(Cyclopropyl(tetrahydro-2H-pyran-4-yl)amino)-1-methyl-1H-pyrazolo[4,3-c]pyridin-3-yl)-2,6-difluoro-5-(trifluoromethyl)phenol] | < 0.1 µM | –
Cc1c(N(C)C2CCOCC2)ncc2c(-c3cc(C(F)(F)F)c(F)c(O)c3F)nn(C)c12 [Compound 9.130, 3-(1,7-Dimethyl-6-(methyl(tetrahydro-2H-pyran-4-yl)amino)-1H-pyrazolo[4,3-c]pyridin-3-yl)-2,6-difluoro-5-(trifluoromethyl)phenol] | 0.1 to 1 µM | –
Cn1nc(-c2cc(C(F)(F)F)c(F)c(O)c2F)c2cnc(N(Cc3cccnc3)C3CCOCC3)cc21 [Compound 9.131, 2,6-Difluoro-3-(1-methyl-6-((pyridin-3-ylmethyl)(tetrahydro-2H-pyran-4-yl)amino)-1H-pyrazolo[4,3-c]pyridin-3-yl)-5-(trifluoromethyl)phenol] | < 0.1 µM | –
Cn1nc(-c2cc(C(F)(F)F)c(F)c(O)c2F)c2cnc(N3CCOC4(CCCC4)C3)cc21 [Compound 9.132, 2,6-Difluoro-3-(1-methyl-6-(6-oxa-9-azaspiro[4.5]decan-9-yl)-1H-pyrazolo[4,3-c]pyridin-3-yl)-5-(trifluoromethyl)phenol] | < 0.1 µM | –
Cn1nc(-c2cc(C(F)(F)F)c(F)c(O)c2F)c2cnc(N3CCOC(C4CCOCC4)C3)cc21 (centres unmarked) [Compound 9.133, 2,6-Difluoro-3-(1-methyl-6-(2-(tetrahydro-2H-pyran-4-yl)morpholino)-1H-pyrazolo[4,3-c]pyridin-3-yl)-5-(trifluoromethyl)phenol] | < 0.1 µM | –
Cn1nc(-c2cc(C(F)(F)F)c(F)c(O)c2F)c2cnc(N3CCN(S(C)(=O)=O)C4(CCC4)C3)cc21 [Compound 9.134, 2,6-Difluoro-3-(1-methyl-6-(5-(methylsulfonyl)-5,8-diazaspiro[3.5]nonan-8-yl)-1H-pyrazolo[4,3-c]pyridin-3-yl)-5-(trifluoromethyl)phenol] | < 0.1 µM | –
Cn1nc(-c2cc(C(F)(F)F)c(F)c(O)c2F)c2cnc(N3CCO[C@@H](c4ccccc4)C3)cc21 [Compound 9.135, (S)-2,6-Difluoro-3-(1-methyl-6-(2-phenylmorpholino)-1H-pyrazolo[4,3-c]pyridin-3-yl)-5-(trifluoromethyl)phenol] | < 0.1 µM | –
CN(c1ncc2c(-c3cc(C(F)(F)F)c(F)c(O)c3F)nn(C)c2c1F)C1CCOCC1 [Compound 9.136, 2,6-Difluoro-3-(7-fluoro-1-methyl-6-(methyl(tetrahydro-2H-pyran-4-yl)amino)-1H-pyrazolo[4,3-c]pyridin-3-yl)-5-(trifluoromethyl)phenol] | < 0.1 µM | –
Cc1cc(N(C)C2CCOCC2)cc2c1c(-c1cc(C(F)(F)F)c(F)c(O)c1F)nn2C [Compound 9.137, 3-(1,4-Dimethyl-6-(methyl(tetrahydro-2H-pyran-4-yl)amino)-1H-indazol-3-yl)-2,6-difluoro-5-(trifluoromethyl)phenol] | 0.1 to 1 µM | –
Cn1nc(-c2cc(C(F)(F)F)c(F)c(O)c2F)c2nnc(N3CCOCC34CC4)cc21 [Compound 9.138, 2,6-Difluoro-3-(1-methyl-6-(7-oxa-4-azaspiro[2.5]octan-4-yl)-1H-pyrazolo[4,3-c]pyridazin-3-yl)-5-(trifluoromethyl)phenol] | < 0.1 µM | –
Cn1nc(-c2cc(C(F)(F)F)c(F)c(O)c2F)c2ccc(NC3COC3)nc21 [Compound 9.139, 2,6-Difluoro-3-(1-methyl-6-(oxetan-3-ylamino)-1H-pyrazolo[3,4-b]pyridin-3-yl)-5-(trifluoromethyl)phenol] | – | inhibition at 10 µM: 25%
Cn1nc(-c2cc(C(F)(F)F)c(F)c(O)c2F)c2cnc(N3CCCC34COC4)cc21 [Compound 9.140, 2,6-Difluoro-3-(1-methyl-6-(2-oxa-5-azaspiro[3.4]octan-5-yl)-1H-pyrazolo[4,3-c]pyridin-3-yl)-5-(trifluoromethyl)phenol] | – | inhibition at 10 µM: 35%
CN(c1cc2c(nn1)c(-c1cc(C(F)(F)F)c(F)c(O)c1O)nn2C)C1CCOCC1 [Compound 9.141, 3-Fluoro-6-(1-methyl-6-(methyl(tetrahydro-2H-pyran-4-yl)amino)-1H-pyrazolo[4,3-c]pyridazin-3-yl)-4-(trifluoromethyl)benzene-1,2-diol] | – | inhibition at 10 µM: 20%
CS(=O)(=O)N1CCN(c2ncc3c(-c4cc(O)c(F)c(C(F)(F)F)c4)n[nH]c3n2)CC1 [Compound 10, 2-Fluoro-5-(6-(4-(methylsulfonyl)piperazin-1-yl)-1H-pyrazolo[3,4-d]pyrimidin-3-yl)-3-(trifluoromethyl)phenol] | 0.1 to 1 µM | –
Oc1cc(-c2n[nH]c3nc(N4CC5(CCOCC5)C4)ncc23)cc(C(F)(F)F)c1F [Compound 10.01, 5-(6-(7-Oxa-2-azaspiro[3.5]nonan-2-yl)-1H-pyrazolo[3,4-d]pyrimidin-3-yl)-2-fluoro-3-(trifluoromethyl)phenol] | 0.1 to 1 µM | –
CC1(C#N)CN(c2ncc3c(-c4cc(O)c(F)c(C(F)(F)F)c4)n[nH]c3n2)C1 [Compound 10.02, 1-(3-(4-Fluoro-3-hydroxy-5-(trifluoromethyl)phenyl)-1H-pyrazolo[3,4-d]pyrimidin-6-yl)-3-methylazetidine-3-carbonitrile] | < 0.1 µM | –
CS(=O)(=O)N1CCN(c2ccc3c(-c4cc(O)c(F)c(C(F)(F)F)c4)n[nH]c3n2)CC1 [Compound 10.03, 2-Fluoro-5-(6-(4-(methylsulfonyl)piperazin-1-yl)-1H-pyrazolo[3,4-b]pyridin-3-yl)-3-(trifluoromethyl)phenol] | 0.1 to 1 µM | –
CS(=O)(=O)N1CCN(c2cnc3c(-c4cc(O)c(F)c(C(F)(F)F)c4)n[nH]c3n2)CC1 [Compound 10.04, 2-Fluoro-5-(6-(4-(methylsulfonyl)piperazin-1-yl)-1H-pyrazolo[3,4-b]pyrazin-3-yl)-3-(trifluoromethyl)phenol] | 0.1 to 1 µM | –
CS(=O)(=O)N1CCN(c2cnc3c(-c4cc(O)c(F)c(C(F)(F)F)c4)nn(C4CCCCO4)c3n2)CC1 (centres unmarked) [Compound 10.05, 2-Fluoro-5-(6-(4-(methylsulfonyl)piperazin-1-yl)-1-(tetrahydro-2H-pyran-2-yl)-1H-pyrazolo[3,4-b]pyrazin-3-yl)-3-(trifluoromethyl)phenol] | < 0.1 µM | –
Oc1cc(-c2n[nH]c3nc(N4CC5(CCOCC5)C4)cnc23)cc(C(F)(F)F)c1F [Compound 10.06, 5-(6-(7-Oxa-2-azaspiro[3.5]nonan-2-yl)-1H-pyrazolo[3,4-b]pyrazin-3-yl)-2-fluoro-3-(trifluoromethyl)phenol] | 0.1 to 1 µM | –
CS(=O)(=O)N1CCN(c2ccc3c(-c4cc(C(F)(F)F)cc(O)c4F)n[nH]c3c2)CC1 [Compound 11, 2-Fluoro-3-(6-(4-(methylsulfonyl)piperazin-1-yl)-1H-indazol-3-yl)-5-(trifluoromethyl)phenol] | 1 to 30 µM | –
CS(=O)(=O)N1CCN(c2ccc3c(-c4ccc(F)c(O)c4F)n[nH]c3c2)CC1 [Compound 11.01, 2,6-Difluoro-3-(6-(4-(methylsulfonyl)piperazin-1-yl)-1H-indazol-3-yl)phenol] | – | inhibition at 30 µM (at 30 uM compound, read-out: HSD17β13 % inhibition at 30 uM): 41%
CS(=O)(=O)N1CCN(c2cc3[nH]nc(-c4cc(C(F)(F)F)cc(O)c4F)c3cn2)CC1 [Compound 11.02, 2-Fluoro-3-(6-(4-(methylsulfonyl)piperazin-1-yl)-1H-pyrazolo[4,3-c]pyridin-3-yl)-5-(trifluoromethyl)phenol] | 0.1 to 1 µM | –
Oc1c(F)c(-c2n[nH]c3cc(N4CCOCC45CC5)ncc23)cc(C(F)(F)F)c1F [Compound 11.03, 3-(6-(7-Oxa-4-azaspiro[2.5]octan-4-yl)-1H-pyrazolo[4,3-c]pyridin-3-yl)-2,6-difluoro-5-(trifluoromethyl)phenol] | < 0.1 µM | –
CN(c1cc2[nH]nc(-c3cc(C(F)(F)F)c(F)c(O)c3F)c2cn1)C1CCOCC1 [Compound 11.04, 2,6-Difluoro-3-(6-(methyl(tetrahydro-2H-pyran-4-yl)amino)-1H-pyrazolo[4,3-c]pyridin-3-yl)-5-(trifluoromethyl)phenol] | < 0.1 µM | –
